Measured values from US8921267B2, “Safening 6-(trisubstituted phenyl)-4-amino-2-pyridinecarboxylate herbicide injury on cereal crops” (Dow AgroSciences LLC, priority 2008, dated 2014).

Tests used:
Format in all cases: in vivo
[1] = tested on: bird's-eye speedwell (Veronica persica L; VERPE); assay: Postemergence herbicidal activity, greenhouse, visual injury: bird's-eye speedwell; design: key: visual injury, 0–100%: 0 = no injury, 100 = complete kill
Method: (§1) Evaluation of Postemergence Herbicidal Safening in Cereal Crops
(§2) Seeds of the desired test plant species were planted in Sun Gro MetroMix® 306 planting mixture, which typically has a pH of 6.0 to 6.8 and an organic matter content of about 30 percent, in plastic pots with a surface area of 103.2 square centimeters (cm^2). When required to ensure good germination and healthy plants, a fungicide treatment and/or other chemical or physical treatment was applied. The plants were grown for 7-36 days (d) in a greenhouse with an approximate 14-hour (h) photoperiod which was maintained at about 18° C. during the day and 17° C. during the night. Nutrients and water were added on a regular basis and supplemental lighting was provided with overhead metal halide 1000-Watt lamps as necessary. The plants were employed for testing when they reached the second or third true leaf stage.
(§3) Weighed amounts of esters (methyl) or salts (TEA [triethylammonium], K [potassium]) of 4-amino-3-chloro-6-(4-chloro-2-fluoro-3-methoxyphenyl)pyridine-2-carboxylic acid (Compound 1) were dissolved in a volume of 97:3 volume/volume (v/v) acetone/dimethylsulfoxide (DMSO) to obtain stock solutions. […] The concentrated stock solutions were diluted with an aqueous mixture of 1.5% v/v of Agri-dex crop oil concentrate to provide the appropriate application rates. Compound requirements are based upon a 12 mL application volume at a rate of 187 liters per hectare (L/ha). Stocks solutions of the safeners were prepared following the same procedure. Spray solutions of the safeners and experimental compound mixtures were prepared by adding the stock solutions to the appropriate amount of dilution solution to form a 12 mL spray solution with active ingredients in two-way combinations. Formulated compounds were applied to the plant material with an overhead Mandel track sprayer equipped with 8002E nozzles calibrated to deliver 187 L/ha over an application area of 0.503 square meters (m^2) at a spray height of 18 inches (43 centimeters (cm)) above average plant canopy. Control plants were sprayed in the same manner with the solvent blank.
(§4) The treated plants and control plants were placed in a greenhouse as described above and watered by sub-irrigation to prevent wash-off of the test compounds. After 20-22 d, the condition of the test plants as compared with that of the control plants was determined visually and scored on a scale of 0 to 100 percent where 0 corresponds to no injury and 100 corresponds to complete kill.
(§5) Colby's equation was used to determine the herbicidal effects expected from the mixtures (Colby, S. R. Calculation of the synergistic and antagonistic response of herbicide combinations. Weeds 1967, 15, 20-22.).
(§6) The following equation was used to calculate the expected activity of mixtures containing two active ingredients, A and B: Expected=A+B−(A×B/100)
(§7) A=observed efficacy of active ingredient A at the same concentration as used in the mixture.
(§8) B=observed efficacy of active ingredient B at the same concentration as used in the mixture.

[2] = tested on: wild pansy (Viola tricolor L; VIOTR); assay: Postemergence herbicidal activity, greenhouse, visual injury: wild pansy; design: key: visual injury, 0–100%: 0 = no injury, 100 = complete kill
Method: as §1, §2, §3, §4, §5, §6, §7, §8

[3] = tested on: cleavers (Galium aparine L; GALAP); assay: Postemergence herbicidal activity, greenhouse, visual injury: cleavers; design: key: visual injury, 0–100%: 0 = no injury, 100 = complete kill
Method: as §1, §2, §3, §4, §5, §6, §7, §8

[4] = tested on: Russian thistle (Salsola iberica L; SASKR); assay: Postemergence herbicidal activity, greenhouse, visual injury: Russian thistle; design: key: visual injury, 0–100%: 0 = no injury, 100 = complete kill
Method: as §1, §2, §3, §4, §5, §6, §7, §8

[5] = tested on: wheat (Triticum aestivum L; TRZAS); assay: Postemergence herbicidal safening, greenhouse, visual injury: wheat
Method: as §1, §2, §3, §4, §5, §6, §7, §8

[6] = tested on: chickweed (Stellaria media L; STEME); assay: Postemergence herbicidal activity, greenhouse, visual injury: chickweed; design: key: visual injury, 0–100%: 0 = no injury, 100 = complete kill
Method: as §1, §2, §3, §4, §5, §6, §7, §8

[7] = tested on: barley (Hordeum vulgare L; HORVS); assay: Postemergence herbicidal safening, greenhouse, visual injury: barley
Method: as §1, §2, §3, §4, §5, §6, §7, §8

[8] = tested on: wild buckwheat (Polygonum convolvulus L; POLCO); assay: Postemergence herbicidal activity, greenhouse, visual injury: wild buckwheat
Method: as §1, §2, §3, §4, §5, §6, §7, §8

[9] = tested on: corn poppy (Papaver rhoeas L; PAPRH); assay: Postemergence herbicidal activity, greenhouse, visual injury: corn poppy
Method: as §1, §2, §3, §4, §5, §6, §7, §8

[10] = tested on: purple deadnettle (Lamium purpureum L; LAMPU); assay: Postemergence herbicidal activity, greenhouse, visual injury: purple deadnettle; design: key: visual injury, 0–100%: 0 = no injury, 100 = complete kill
Method: as §1, §2, §3, §4, §5, §6, §7, §8

O=C(C(Cl)Cl)N1CCOC12CCCCC2 [AD67, 4-(dichloroacetyl)-1-oxa-4-azaspiro[4,5]decane, reference compound]
VERPE Ob ([1]; applied alone at 17.5 g/ha): 0% | VERPE Ob ([1]; applied alone at 35 g/ha): 0% | VERPE Ob ([1]; applied alone at 70 g/ha): 0% | VERPE Ob ([1]; applied alone at 140 g/ha): 0% | VIOTR Ob ([2]; applied alone at 17.5 g/ha): 0% | VIOTR Ob ([2]; applied alone at 35 g/ha): 0% | VIOTR Ob ([2]; applied alone at 70 g/ha): 0% | VIOTR Ob ([2]; applied alone at 140 g/ha): 0% | GALAP Ob ([3]; applied alone at 17.5 g/ha): 0% | GALAP Ob ([3]; applied alone at 35 g/ha): 0% | GALAP Ob ([3]; applied alone at 70 g/ha): 0% | GALAP Ob ([3]; applied alone at 140 g/ha): 0% | SASKR Ob ([4]; applied alone at 17.5 g/ha): 0% | SASKR Ob ([4]; applied alone at 35 g/ha): 0% | SASKR Ob ([4]; applied alone at 70 g/ha): 0% | SASKR Ob ([4]; applied alone at 140 g/ha): 0% | TRZAS Ob ([5]; applied alone at 17.5 g/ha): 0% | TRZAS Ob ([5]; applied alone at 35 g/ha): 0% | TRZAS Ob ([5]; applied alone at 70 g/ha): 0% | TRZAS Ob ([5]; applied alone at 140 g/ha): 0% | STEME Ob ([6]; applied alone at 17.5 g/ha): 0% | STEME Ob ([6]; applied alone at 35 g/ha): 0% | STEME Ob ([6]; applied alone at 70 g/ha): 0% | STEME Ob ([6]; applied alone at 140 g/ha): 0% | HORVS Ob ([7]; applied alone at 17.5 g/ha): 0% | HORVS Ob ([7]; applied alone at 35 g/ha): 0% | HORVS Ob ([7]; applied alone at 70 g/ha): 0% | HORVS Ob ([7]; applied alone at 140 g/ha): 0% | POLCO Ob ([8]; applied alone at 17.5 g/ha): 0% | POLCO Ob ([8]; applied alone at 35 g/ha): 0% | POLCO Ob ([8]; applied alone at 70 g/ha): 0% | POLCO Ob ([8]; applied alone at 140 g/ha): 0% | PAPRH Ob ([9]; applied alone at 17.5 g/ha): 0% | PAPRH Ob ([9]; applied alone at 35 g/ha): 0% | PAPRH Ob ([9]; applied alone at 70 g/ha): 0% | PAPRH Ob ([9]; applied alone at 140 g/ha): 0%

Cc1ccc(NC(=O)NC(C)(C)c2ccccc2)cc1 [Daimuron]
LAMPU Ob (Observed values) ([10]; safener 4.4 g/ha alone): 0 | LAMPU Ob (Observed values) ([10]; safener 8.8 g/ha alone): 0 | LAMPU Ob (Observed values) ([10]; safener 17.5 g/ha alone): 0 | LAMPU Ob (Observed values) ([10]; safener 35 g/ha alone): 0 | PAPRH Ob (Observed values) ([9]; safener 4.4 g/ha alone): 0 | PAPRH Ob (Observed values) ([9]; safener 8.8 g/ha alone): 0 | PAPRH Ob (Observed values) ([9]; safener 17.5 g/ha alone): 0 | PAPRH Ob (Observed values) ([9]; safener 35 g/ha alone): 0

O=C(O)c1nc(C(Cl)(Cl)Cl)n(-c2ccc(Cl)cc2Cl)n1 [Fenchlorazole]
LAMPU Ob (Observed values) ([10]; safener 4.4 g/ha alone): 0 | LAMPU Ob (Observed values) ([10]; safener 8.8 g/ha alone): 0 | LAMPU Ob (Observed values) ([10]; safener 17.5 g/ha alone): 0 | LAMPU Ob (Observed values) ([10]; safener 35 g/ha alone): 0 | PAPRH Ob (Observed values) ([9]; safener 4.4 g/ha alone): 0 | PAPRH Ob (Observed values) ([9]; safener 8.8 g/ha alone): 0 | PAPRH Ob (Observed values) ([9]; safener 17.5 g/ha alone): 0 | PAPRH Ob (Observed values) ([9]; safener 35 g/ha alone): 0

FC(F)(F)C(=NOCC1OCCO1)c1ccc(Cl)cc1 [Fluxofenim]
VERPE Ob ([1]; applied alone, 17.5 g/ha): 0 | VERPE Ob ([1]; applied alone, 35 g/ha): 0 | VERPE Ob ([1]; applied alone, 70 g/ha): 0 | VERPE Ob ([1]; applied alone, 140 g/ha): 0 | VIOTR Ob ([2]; applied alone, 17.5 g/ha): 0 | VIOTR Ob ([2]; applied alone, 35 g/ha): 0 | VIOTR Ob ([2]; applied alone, 70 g/ha): 0 | VIOTR Ob ([2]; applied alone, 140 g/ha): 0 | GALAP Ob ([3]; applied alone, 17.5 g/ha): 0 | GALAP Ob ([3]; applied alone, 35 g/ha): 0 | GALAP Ob ([3]; applied alone, 70 g/ha): 0 | GALAP Ob ([3]; applied alone, 140 g/ha): 0 | SASKR Ob ([4]; applied alone, 17.5 g/ha): 0 | SASKR Ob ([4]; applied alone, 35 g/ha): 0 | SASKR Ob ([4]; applied alone, 70 g/ha): 0 | SASKR Ob ([4]; applied alone, 140 g/ha): 0 | TRZAS Ob ([5]; applied alone, 17.5 g/ha): 0% | TRZAS Ob ([5]; applied alone, 35 g/ha): 0% | TRZAS Ob ([5]; applied alone, 70 g/ha): 0% | TRZAS Ob ([5]; applied alone, 140 g/ha): 0% | STEME Ob ([6]; applied alone, 17.5 g/ha): 0 | STEME Ob ([6]; applied alone, 35 g/ha): 0 | STEME Ob ([6]; applied alone, 70 g/ha): 0 | STEME Ob ([6]; applied alone, 140 g/ha): 0 | HORVS Ob ([7]; applied alone, 17.5 g/ha): 0% | HORVS Ob ([7]; applied alone, 35 g/ha): 0% | HORVS Ob ([7]; applied alone, 70 g/ha): 0% | HORVS Ob ([7]; applied alone, 140 g/ha): 0% | POLCO Ob ([8]; applied alone, 17.5 g/ha): 0 | POLCO Ob ([8]; applied alone, 35 g/ha): 0 | POLCO Ob ([8]; applied alone, 70 g/ha): 0 | POLCO Ob ([8]; applied alone, 140 g/ha): 0 | PAPRH Ob ([9]; applied alone, 17.5 g/ha): 0 | PAPRH Ob ([9]; applied alone, 35 g/ha): 0 | PAPRH Ob ([9]; applied alone, 70 g/ha): 0 | PAPRH Ob ([9]; applied alone, 140 g/ha): 0

O=C1OC(=O)c2cccc3cccc1c23 [Naphthalic anhydride]
VERPE Ob ([1]; applied alone, 17.5 g/ha): 0 | VERPE Ob ([1]; applied alone, 35 g/ha): 0 | VERPE Ob ([1]; applied alone, 70 g/ha): 0 | VERPE Ob ([1]; applied alone, 140 g/ha): 0 | VIOTR Ob ([2]; applied alone, 17.5 g/ha): 0 | VIOTR Ob ([2]; applied alone, 35 g/ha): 0 | VIOTR Ob ([2]; applied alone, 70 g/ha): 0 | VIOTR Ob ([2]; applied alone, 140 g/ha): 0 | GALAP Ob ([3]; applied alone, 17.5 g/ha): 0 | GALAP Ob ([3]; applied alone, 35 g/ha): 0 | GALAP Ob ([3]; applied alone, 70 g/ha): 0 | GALAP Ob ([3]; applied alone, 140 g/ha): 0 | SASKR Ob ([4]; applied alone, 17.5 g/ha): 0 | SASKR Ob ([4]; applied alone, 35 g/ha): 0 | SASKR Ob ([4]; applied alone, 70 g/ha): 0 | SASKR Ob ([4]; applied alone, 140 g/ha): 0 | STEME Ob ([6]; applied alone, 17.5 g/ha): 0 | STEME Ob ([6]; applied alone, 35 g/ha): 0 | STEME Ob ([6]; applied alone, 70 g/ha): 0 | STEME Ob ([6]; applied alone, 140 g/ha): 0 | POLCO Ob ([8]; applied alone, 17.5 g/ha): 0 | POLCO Ob ([8]; applied alone, 35 g/ha): 0 | POLCO Ob ([8]; applied alone, 70 g/ha): 0 | POLCO Ob ([8]; applied alone, 140 g/ha): 0 | PAPRH Ob ([9]; applied alone, 17.5 g/ha): 0 | PAPRH Ob ([9]; applied alone, 35 g/ha): 0 | PAPRH Ob ([9]; applied alone, 70 g/ha): 0 | PAPRH Ob ([9]; applied alone, 140 g/ha): 0
